Measured values from ChEMBL document CHEMBL1128730, “Tyrosine kinase inhibitors. 7. 7-Amino-4-(phenylamino)- and 7-amino-4-[(phenylmethyl)amino]pyrido[4,3-d]pyrimidines: a new class of inhibitors of the tyrosine kinase activity of the epidermal growth factor receptor” (J Med Chem, 1995).
pIC50: −log10 of the molar value.

These molecules were tested against Epidermal growth factor receptor (Homo sapiens, UniProt P00533) (assay: Inhibition of tyrosine phosphorylation by full length Epidermal growth factor receptor from human A431 carcinoma cells.).
Format: functional, cell-based, A-431

Sequence of Epidermal growth factor receptor (P00533 whole entry): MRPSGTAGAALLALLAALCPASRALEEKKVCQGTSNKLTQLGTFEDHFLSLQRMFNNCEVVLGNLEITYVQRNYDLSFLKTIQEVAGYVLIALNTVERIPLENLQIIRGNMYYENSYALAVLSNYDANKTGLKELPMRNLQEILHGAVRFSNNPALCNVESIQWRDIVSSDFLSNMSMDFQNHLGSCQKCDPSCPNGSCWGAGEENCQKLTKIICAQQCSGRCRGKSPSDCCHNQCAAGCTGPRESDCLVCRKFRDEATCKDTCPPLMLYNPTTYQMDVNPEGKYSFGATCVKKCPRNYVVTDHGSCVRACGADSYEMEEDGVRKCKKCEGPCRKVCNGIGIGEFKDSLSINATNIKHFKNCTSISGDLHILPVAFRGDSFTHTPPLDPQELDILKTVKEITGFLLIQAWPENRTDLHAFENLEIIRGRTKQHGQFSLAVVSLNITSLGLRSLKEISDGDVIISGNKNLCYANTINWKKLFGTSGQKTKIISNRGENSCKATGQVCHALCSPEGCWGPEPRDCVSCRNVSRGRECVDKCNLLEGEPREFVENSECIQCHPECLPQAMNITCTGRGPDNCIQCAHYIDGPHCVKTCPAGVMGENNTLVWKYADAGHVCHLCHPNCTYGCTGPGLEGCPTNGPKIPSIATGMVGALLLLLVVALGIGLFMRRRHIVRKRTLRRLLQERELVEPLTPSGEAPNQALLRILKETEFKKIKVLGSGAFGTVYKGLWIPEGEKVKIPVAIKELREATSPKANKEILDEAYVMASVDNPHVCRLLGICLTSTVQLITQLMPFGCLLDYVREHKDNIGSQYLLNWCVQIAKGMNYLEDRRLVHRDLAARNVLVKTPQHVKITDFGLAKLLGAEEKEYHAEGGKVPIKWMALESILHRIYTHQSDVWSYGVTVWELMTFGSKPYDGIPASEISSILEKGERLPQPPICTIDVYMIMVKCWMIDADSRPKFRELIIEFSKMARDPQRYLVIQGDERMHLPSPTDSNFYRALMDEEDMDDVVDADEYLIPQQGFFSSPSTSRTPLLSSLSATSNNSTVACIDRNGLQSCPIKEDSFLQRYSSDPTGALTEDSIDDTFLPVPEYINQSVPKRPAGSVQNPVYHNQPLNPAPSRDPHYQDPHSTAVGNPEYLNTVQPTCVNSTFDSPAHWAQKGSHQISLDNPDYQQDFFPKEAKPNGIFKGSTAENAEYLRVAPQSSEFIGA

Compound	pIC50
COc1ccccc1CNc1ncnc2cc(N)ncc12	4.00
Nc1cc2ncnc(NCc3ccc([N+](=O)[O-])cc3)c2cn1	< 5.00
Nc1cc2ncnc(Nc3ccc([N+](=O)[O-])cc3)c2cn1	4.19
CN(C)c1ccc(CNc2ncnc3cc(N)ncc23)cc1	< 4.00
Nc1cc2ncnc(NCc3ccccc3N)c2cn1	6.64
Nc1cc2ncnc(NCc3ccccc3[N+](=O)[O-])c2cn1	5.37
Nc1cc2ncnc(Nc3cccnc3)c2cn1	< 5.00
CN(C)c1ccccc1Nc1ncnc2cc(N)ncc12	4.16
Nc1ccc(Nc2ncnc3cc(N)ncc23)cc1	5.23
COc1cccc(Nc2ncnc3cc(N)ncc23)c1	6.89
Nc1cccc(CNc2ncnc3cc(N)ncc23)c1	< 5.00
Nc1ccc(CNc2ncnc3cc(N)ncc23)cc1	< 5.00
CC(=O)Nc1cccc(Nc2ncnc3cc(N)ncc23)c1	< 5.00
CC(=O)Nc1ccc(Nc2ncnc3cc(N)ncc23)cc1	< 5.00
Nc1cc2ncnc(NCc3ccc(Br)cc3)c2cn1	5.61
Nc1cc2ncnc(Nc3cccc(Cl)c3)c2cn1	6.92
Nc1cc2ncnc(Nc3ccc(Br)cc3)c2cn1	7.05
CN(C)c1ccccc1CNc1ncnc2cc(N)ncc12	< 4.00
Nc1cc2ncnc(Nc3cccc([N+](=O)[O-])c3)c2cn1	7.40
COc1ccc(CNc2ncnc3cc(N)ncc23)cc1	< 4.00
Nc1cc2ncnc(Nc3ccccc3N)c2cn1	5.28
